The supplement of paper PMC10307832

Assays:
Assay in all cases: relative viability (nuclei count vs DMSO), 5 days (fraction); higher = more cells survive
[1] = tested on: NCI-H1666
Procedure, shortened: (§1)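 Relative viability is defined as nuclei in treated wells over nuclei in vehicle wells. Duplicate plates were run and medians reported. Lung cancer cell lines in 1536-well plates were dosed by pin tool one day after seeding, with one drug or with a fixed anchor-drug dose plus five library-drug doses (not always all listed) in √10 steps, and nuclei were counted after 5 days.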

[2] = tested on: NCI-H2126
Procedure, shortened: as §1

[3] = tested on: NCI-H1792
Procedure, shortened: as §1

[4] = tested on: NCI-H3122
Procedure, shortened: as §1

[5] = tested on: SK-LU-1
Procedure, shortened: as §1

[6] = tested on: NCI-H2347
Procedure, shortened: as §1

[7] = tested on: HCC-827
Procedure, shortened: as §1

[8] = tested on: ChaGo-K-1
Procedure, shortened: as §1

[9] = tested on: NCI-H1793
Procedure, shortened: as §1

[10] = tested on: NCI-H1755
Procedure, shortened: as §1

[11] = tested on: LU99A
Procedure, shortened: as §1

[12] = tested on: RERF-LC-KJ
Procedure, shortened: as §1

[13] = tested on: LXF-289
Procedure, shortened: as §1

[14] = tested on: NCI-H520
Procedure, shortened: as §1

[15] = tested on: NCI-H1395
Procedure, shortened: as §1

[16] = tested on: ABC-1
Procedure, shortened: as §1

[17] = tested on: CAL-12T
Procedure, shortened: as §1

[18] = tested on: NCI-H358
Procedure, shortened: as §1

[19] = tested on: NCI-H1944
Procedure, shortened: as §1

[20] = tested on: LCLC-103H
Procedure, shortened: as §1

[21] = tested on: NCI-H322M
Procedure, shortened: as §1

Compound: Cc1cn(-c2cc(NC(=O)c3ccc(C)c(Nc4nccc(-c5cccnc5)n4)c3)cc(C(F)(F)F)c2)cn1 [Nilotinib] + Cc1nc(Nc2ncc(C(=O)Nc3c(C)cccc3Cl)s2)cc(N2CCN(CCO)CC2)n1 [Dasatinib] (partner 0.075 µM)
- relative viability ([1]; first compound 0.001 µM): 0.783
- relative viability ([1]; first compound 0.003162 µM): 0.886
- relative viability ([1]; first compound 0.01 µM): 0.797
- relative viability ([1]; first compound 0.03162 µM): 0.719
- relative viability ([1]; first compound 0.1 µM): 0.778
- relative viability ([2]; first compound 0.001 µM): 0.534
- relative viability ([2]; first compound 0.003162 µM): 0.522
- relative viability ([2]; first compound 0.01 µM): 0.513
- relative viability ([2]; first compound 0.03162 µM): 0.5
- relative viability ([2]; first compound 0.1 µM): 0.459
- relative viability ([3]; first compound 0.001 µM): 0.614
- relative viability ([3]; first compound 0.003162 µM): 0.591
- relative viability ([3]; first compound 0.01 µM): 0.785
- relative viability ([3]; first compound 0.1 µM): 1.36
- relative viability ([4]; first compound 0.001 µM): 0.719
- relative viability ([4]; first compound 0.003162 µM): 0.91
- relative viability ([4]; first compound 0.01 µM): 0.982
- relative viability ([4]; first compound 0.03162 µM): 0.267
- relative viability ([4]; first compound 0.1 µM): 0.129
- relative viability ([5]; first compound 0.001 µM): 0.196
- relative viability ([5]; first compound 0.003162 µM): 0.146
- relative viability ([5]; first compound 0.01 µM): 0.21
- relative viability ([5]; first compound 0.03162 µM): 0.177
- relative viability ([5]; first compound 0.1 µM): 0.177
- relative viability ([6]; first compound 0.001 µM): 0.302
- relative viability ([6]; first compound 0.003162 µM): 0.344
- relative viability ([6]; first compound 0.01 µM): 0.344
- relative viability ([6]; first compound 0.03162 µM): 0.267
- relative viability ([6]; first compound 0.1 µM): 0.264
- relative viability ([7]; first compound 0.001 µM): 0.301
- relative viability ([7]; first compound 0.003162 µM): 0.308
- relative viability ([7]; first compound 0.01 µM): 0.329
- relative viability ([7]; first compound 0.03162 µM): 0.283
- relative viability ([7]; first compound 0.1 µM): 0.284
- relative viability ([8]; first compound 0.001 µM): 0.521
- relative viability ([8]; first compound 0.003162 µM): 0.598
- relative viability ([8]; first compound 0.01 µM): 0.634
- relative viability ([8]; first compound 0.03162 µM): 0.372
- relative viability ([8]; first compound 0.1 µM): 0.331
- relative viability ([9]; first compound 0.001 µM): 0.303
- relative viability ([9]; first compound 0.003162 µM): 0.407
- relative viability ([9]; first compound 0.01 µM): 0.459
- relative viability ([9]; first compound 0.03162 µM): 0.283
- relative viability ([9]; first compound 0.1 µM): 0.194
- relative viability ([10]; first compound 0.001 µM): 0.376
- relative viability ([10]; first compound 0.003162 µM): 0.381
- relative viability ([10]; first compound 0.01 µM): 0.404
- relative viability ([10]; first compound 0.03162 µM): 0.276
- relative viability ([10]; first compound 0.1 µM): 0.184
- relative viability ([11]; first compound 0.001 µM): 0.482
- relative viability ([11]; first compound 0.003162 µM): 0.702
- relative viability ([11]; first compound 0.01 µM): 0.557
- relative viability ([11]; first compound 0.03162 µM): 0.359
- relative viability ([11]; first compound 0.1 µM): 0.282
- relative viability ([12]; first compound 0.001 µM): 0.716
- relative viability ([12]; first compound 0.003162 µM): 0.947
- relative viability ([12]; first compound 0.01 µM): 0.833
- relative viability ([12]; first compound 0.03162 µM): 0.71
- relative viability ([12]; first compound 0.1 µM): 0.549
- relative viability ([13]; first compound 0.001 µM): 0.214
- relative viability ([13]; first compound 0.003162 µM): 0.239
- relative viability ([13]; first compound 0.01 µM): 0.188
- relative viability ([13]; first compound 0.03162 µM): 0.207
- relative viability ([13]; first compound 0.1 µM): 0.136
- relative viability ([14]; first compound 0.001 µM): 0.224
- relative viability ([14]; first compound 0.003162 µM): 0.171
- relative viability ([14]; first compound 0.01 µM): 0.198
- relative viability ([14]; first compound 0.03162 µM): 0.156
- relative viability ([14]; first compound 0.1 µM): 0.147
- relative viability ([15]; first compound 0.001 µM): 0.445
- relative viability ([15]; first compound 0.003162 µM): 0.357
- relative viability ([15]; first compound 0.01 µM): 0.428
- relative viability ([15]; first compound 0.03162 µM): 0.357
- relative viability ([15]; first compound 0.1 µM): 0.333
- relative viability ([16]; first compound 0.001 µM): 0.557
- relative viability ([16]; first compound 0.003162 µM): 0.637
- relative viability ([16]; first compound 0.01 µM): 0.643
- relative viability ([16]; first compound 0.03162 µM): 0.554
- relative viability ([16]; first compound 0.1 µM): 0.24
- relative viability ([17]; first compound 0.001 µM): 0.376
- relative viability ([17]; first compound 0.003162 µM): 0.387
- relative viability ([17]; first compound 0.01 µM): 0.456
- relative viability ([17]; first compound 0.03162 µM): 0.178
- relative viability ([17]; first compound 0.1 µM): 0.137
- relative viability ([18]; first compound 0.001 µM): 0.177
- relative viability ([18]; first compound 0.003162 µM): 0.153
- relative viability ([18]; first compound 0.01 µM): 0.18
- relative viability ([18]; first compound 0.03162 µM): 0.178
- relative viability ([18]; first compound 0.1 µM): 0.157
- relative viability ([19]; first compound 0.001 µM): 0.228
- relative viability ([19]; first compound 0.003162 µM): 0.206
- relative viability ([19]; first compound 0.01 µM): 0.217
- relative viability ([19]; first compound 0.03162 µM): 0.241
- relative viability ([20]; first compound 0.001 µM): 0.414
- relative viability ([20]; first compound 0.003162 µM): 0.414
- relative viability ([20]; first compound 0.01 µM): 0.51
- relative viability ([20]; first compound 0.03162 µM): 0.338
- relative viability ([20]; first compound 0.1 µM): 0.434
- relative viability ([21]; first compound 0.001 µM): 0.295
- relative viability ([21]; first compound 0.003162 µM): 0.279
- relative viability ([21]; first compound 0.03162 µM): 0.282
- relative viability ([21]; first compound 0.1 µM): 0.234
